Source: patent publication US20070010484A1, “Method for treating or inhibiting the effects of injuries or diseases that result in neuronal degeneration and method for promoting neurogenesis” (YEDA RESEARCH AND DEVELOPMENT CO. LTD., priority 2003, published 2007)
“Also recorded” adds a separate entry of the source.

Experiments:
[1] = tested on: Organotypic hippocampal slice cultures (OHSC); assay: Organotypic hippocampal slice cultures, propidium iodide staining; format: cell-based; conditions: rat OHSCs, 2.5 μg/ml or 25 μg/ml, 24 h
Description: Organotypic hippocampal slice cultures (OHSC): OHSC were prepared as described (Franklin and Paxinos, 1997) from rats brains (Lewis aged 8-10 days) CSPG-DSs were added to the OHSCs for 24 h. Propidium iodide (5 μg/ml; Sigma) was then added to the medium for 30 min. The brain slices were examined under a Zeiss laser-scanning confocal microscope (LSM510) or a Zeiss Axioplane 100 fluorescence light microscope.

IGF-1 = IGF-1 expression in primary microglial cultures, immunocytochemistry; format: cell-based, C57Bl/6J mice
Description: Primary microglial culture. Brains from neonatal (P0-P1) C57Bl/6J mice were stripped of their meninges and minced with scissors under a dissecting microscope (Zeiss, Stemi DV4, Germany) in Leibovitz-15 medium (Biological Industries, Beit Ha-Emek, Israel). After trypsinization (0.5% trypsin, 10 min, 37° C./5% CO2), the tissue was triturated. The cell suspension was washed in culture medium for glial cells (DMEM supplemented with 10% fetal calf serum (FCS; Sigma-Aldrich, Rehovot, Israel), 1-glutamine (1 mM), sodium pyruvate (1 mM), penicillin (100 U/ml), and streptomycin ([…])) and cultured at 37° C./5% CO2 in 75-cm2 Falcon tissue-culture flasks (BD Biosciences) coated with poly-D-lysine (PDL) ([…]; Sigma-Aldrich, Rehovot) in borate buffer (2.37 g borax and 1.55 g boric acid dissolved in 500 ml sterile water, pH 8.4) for 1 h, then rinsed thoroughly with sterile, glass-distilled water. Half of the medium was changed after 6 h in culture and every 2nd day thereafter, starting on day 2, for a total culture time of 10-14 days. […]

human T cells = assay: T-cell chemotaxis towards SDF-1α, transwell; format: cell-based; conditions: 2 h pretreatment, FN-coated transwell, 3 h, relative to untreated cells
Description: Human T cells. T cells from the peripheral blood of healthy donors were isolated by negative selection using a RosetteSep™ antibody cocktail containing mabs against CD16, CD19, CD36, and CD56 (StemCell Technologies, Vancouver, BC). After incubation with the cocktail for 20 min at room temperature, blood samples were diluted in PBS with 2% fetal bovine serum, loaded on a Ficoll column (ICN Biomedical, Aurora, Ohio), and centrifuged at 1200× g for 20 min at room temperature. The cells were removed from the Ficoll column, washed, and cultured in RPMI containing antibiotics and 10% heat-inactivated FCS. T-cell chemotaxis. Migration of purified human T cells was measured with a transwell apparatus (6.5 mm diameter; Corning, New York, N.Y.) fitted with polycarbonate filters (pore size 5 μm). The filters separating the upper and lower chambers were pretreated with FN (20 μg/ml) for 1 h at 37° C. ^51[Cr]-labeled T cells were preincubated for 2 h with CSPG-DS at the indicated concentrations, and then suspended (2×10^6/ml) in RPMI containing 0.1% BSA, 0.1% L-glutamine, and antibiotics, and added to the upper chamber. The bottom chambers contained the same RPMI medium, with or without human SDF-1α (50 ng/ml). […]

PC12 cells = assay: LPA-induced neurite retraction in differentiated PC12 cells; format: cell-based, rat
Description: PC12 cell line: Rat pheochromocytoma (PC12) cells were cultured in DMEM containing 8% horse serum and either 8% FCS (culture medium) or 1% FCS (differentiation medium), and antibiotics. For assays of neurite outgrowth, the cells were plated (10^5 cell/well) on 13-mm glass coverslips, precoated with collagen (500 μg/ml) in 24-well plates. Treatment of PC12 cells with lysophosphatidic acid (LPA). PC12 cells were placed and were differentiated for 3 days in the presence of 100 ng/ml NGF, in collagen-precoated culture dishes (Corning). […] The cells were then fixed with 4% paraformaldehyde (PFA) and analyzed by Nomarski microscopy. The longest neurite of each cell was measured and the results are expressed as their mean±SEM.

[2] = tested on: experimental autoimmune encephalomyelitis in mice; assay: Experimental autoimmune encephalomyelitis (EAE); format: in vivo
Description: Induction of experimental autoimmune encephalomyelitis. Mice were immunized s.c. at one site in the flank with 200 μl of emulsion consisting of myelin oligodendrocyte glycoprotein (MOG) […] (300 μg per mouse) emulsified in CFA supplemented with 500 μg of Mycobacterium tuberculosis (Difco, Detroit, Mich.). Clinical symptoms of experimental autoimmune encephalomyelitis (EAE) were examined and scored daily, as follows: 0, no clinical disease; 0.5, piloerection; 1, tail weakness; 1.5, tail paralysis; 2, hindlimb weakness; 3, hindlimb paralysis; 3.5, forelimb weakness; 4, forelimb paralysis; 5, moribund state or death.

TNF-α = TNF-α secretion by anti-CD3-activated T cells, ELISA; format: cell-based, human; conditions: 2 h pretreatment, then anti-CD3 activation 24 h
[3] = PC12 cells with LPA plus CSPG-DSs
[4] = MOG-immunized mice, 5 μg injections on days 0, 3, 5 and 7

With `CC(=O)N[C@H]1C(O)O[C@H](COS(=O)(=O)O)[C@H](O)[C@@H]1O[C@@H]1OC(C(=O)O)=C[C@H](O)[C@H]1O` (stereo partly drawn) [CSPG-DS, 2-acetoamido-2-deoxy-3-O-(β-D-gluco-4-enepyranosyluronic acid)-6-O-sulfo-D-galactose] the “neuronal loss (propidium iodide staining)” value [1] was “significantly reduced”, the “LPS-induced suppression of IGF-I expression” value (IGF-1; microglia pre-incubated with CSPG-DS (25 or 50 μg/ml) 1 h, then LPS 24 h) was “attenuated” and the “IGF-1 expression by microglia” value (IGF-1; mouse primary microglia) was “high levels”. For the same compound, the “T-cell migration towards SDF-1α” value (human T cells) was “reduced”, the “LPA-induced neurite collapse / retraction” value (PC12 cells; NGF-differentiated PC12 cells, LPA 1 μg/ml 20 min together with CSPG-DSs (5 or 50 μg/ml)) was “dose-dependent reversal of the retraction process; also recorded: prevented” and the mean neurite length (PC12 cells; [3]) was “beneficial effect”. For the same compound, the “number of neurite-bearing cells” value (PC12 cells; [3]) was “beneficial effect”, the “duration of the disease (EAE)” value [2, 4] was “shortened” and the “symptoms of the disease (EAE score)” value [2, 4] was “significantly attenuated”. For the same compound, the “EAE disease with less frequent injections” value ([2]; injection on day 0 only, or days 0 and 7) was “alleviated the disease” and the “secretion of TNF-α” value (TNF-α) was “significant reduction”.
